The text below walks through data of patent US10336761B2, “TGFβ receptor antagonist” (BRISTOL-MYERS SQUIBB COMPANY, priority 2015, dated 2019).

Chain of HIS-TGFβR1 T204D (P36897 34-503 T204D): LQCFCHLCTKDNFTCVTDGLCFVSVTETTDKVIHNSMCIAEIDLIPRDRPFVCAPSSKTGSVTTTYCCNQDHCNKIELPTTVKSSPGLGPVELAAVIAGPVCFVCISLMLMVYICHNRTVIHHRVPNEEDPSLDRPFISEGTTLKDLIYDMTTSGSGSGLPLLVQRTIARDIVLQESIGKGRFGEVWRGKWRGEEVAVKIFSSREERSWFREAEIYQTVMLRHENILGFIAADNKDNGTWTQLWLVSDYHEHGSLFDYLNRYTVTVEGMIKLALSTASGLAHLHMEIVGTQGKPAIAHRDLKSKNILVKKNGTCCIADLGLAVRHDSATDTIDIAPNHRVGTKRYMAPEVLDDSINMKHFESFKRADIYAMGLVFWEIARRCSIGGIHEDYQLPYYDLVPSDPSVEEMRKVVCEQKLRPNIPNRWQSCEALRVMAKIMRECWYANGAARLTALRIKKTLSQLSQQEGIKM

This test has as its target HIS-TGFβR1 T204D (Homo sapiens (Human), UniProt P36897, T204D). Put plainly: HTRF probe-displacement assay, HIS-TGFβR1 T204D. It counts as binding. As to conditions: 1 hour at room temperature. For orientation: Time-resolved FRET reads energy transfer from a long-lived donor to a nearby acceptor.
The term IC50 denotes the concentration at which inhibition is half-maximal. The compound `FC(F)(F)c1cccc(-c2nc(Nc3ccnc(-c4cc[nH]n4)c3)c3cccn3n2)n1` [Example 230, 2-(1H-pyrazol-3-yl)-N-{2-[6-(trifluoromethyl)pyridin-2-yl]pyrrolo[2,1-f][1,2,4]triazin-4-yl}pyridin-4-amine] came in with an IC50 of 100 nM.

Consider `OCCN1CCN(Cc2ccn3nc(-c4ccccn4)nc(Nc4ccncc4F)c23)CC1` [Example 231, 2-[4-({4-[(3-fluoropyridin-4-yl)amino]-2-(pyridin-2-yl)pyrrolo[2,1-f][1,2,4]triazin-5-yl}methyl)piperazin-1-yl]ethan-1-ol], for which the IC50 is 2.3 nM.

Consider `O[C@H]1CCN(Cc2ccn3nc(-c4ccccn4)nc(Nc4ccncc4F)c23)C1` [Example 232, (3S)-1-({4-[(3-fluoropyridin-4-yl)amino]-2-(pyridin-2-yl)pyrrolo[2,1-f][1,2,4]triazin-5-yl}methyl)pyrrolidin-3-ol], for which the IC50 was determined as 0.93 nM.

`O[C@@H]1CCN(Cc2ccn3nc(-c4ccccn4)nc(Nc4ccncc4F)c23)C1` [Example 233, (3R)-1-({4-[(3-fluoropyridin-4-yl)amino]-2-(pyridin-2-yl)pyrrolo[2,1-f][1,2,4]triazin-5-yl}methyl)pyrrolidin-3-ol] showed an IC50 of 0.85 nM.

As for `CN1CCN(Cc2ccn3nc(-c4ccc(F)cn4)nc(Nc4ccncc4F)c23)CC1` [Example 234, 3-fluoro-N-[2-(5-fluoropyridin-2-yl)-5-[(4-methylpiperazin-1-yl)methyl]pyrrolo[2,1-f][1,2,4]triazin-4-yl]pyridin-4-amine], the IC50 was found to be 3 nM.

For `CC(C)(O)CNCc1ccn2nc(-c3ccc(F)cn3)nc(Nc3ccncc3F)c12` [Example 235, 1-({[2-(5-fluoropyridin-2-yl)-4-[(3-fluoropyridin-4-yl)amino]pyrrolo[2,1-f][1,2,4]triazin-5-yl]methyl}amino)-2-methylpropan-2-ol], the IC50 was under 0.25 nM.

On to `OC1CCC(NCc2ccn3nc(-c4ccccn4)nc(Nc4ccncc4F)c23)CC1` (stereo not shown) [Example 236, 4-[({4-[(3-fluoropyridin-4-yl)amino]-2-(pyridin-2-yl)pyrrolo[2,1-f][1,2,4]triazin-5-yl}methyl)amino]cyclohexan-1-ol], for which the IC50 worked out at 2.2 nM.

Consider `OC12C[C@H]3C[C@@H](C1)CC(NCc1ccn4nc(-c5ccccn5)nc(Nc5ccncc5F)c14)(C3)C2` [Example 237, (5R,7S)-3-[({4-[(3-fluoropyridin-4-yl)amino]-2-(pyridin-2-yl)pyrrolo[2,1-f][1,2,4]triazin-5-yl}methyl)amino]adamantan-1-ol], for which the IC50 worked out at 1.2 nM.

`Fc1cnccc1Nc1nc(-c2ccccn2)nn2ccc(CNCC3CCNCC3)c12` [Example 238, 3-fluoro-N-(5-{[(piperidin-4-ylmethyl)amino]methyl}-2-(pyridin-2-yl)pyrrolo[2,1-f][1,2,4]triazin-4-yl)pyridin-4-amine] had an IC50 of 2.9 nM.

On to `CC(O)CNCc1ccn2nc(-c3ccccn3)nc(Nc3ccncc3F)c12` (stereo not shown) [Example 239, 1-[({4-[(3-fluoropyridin-4-yl)amino]-2-(pyridin-2-yl)pyrrolo[2,1-f][1,2,4]triazin-5-yl}methyl)amino]propan-2-ol], for which the IC50 was determined as 1.2 nM. Against the preceding compound, the IC50 is about 2.4-fold lower.

`OC1(CCNCc2ccn3nc(-c4ccccn4)nc(Nc4ccncc4F)c23)CCCC1` [Example 240, 1-{2-[({4-[(3-fluoropyridin-4-yl)amino]-2-(pyridin-2-yl)pyrrolo[2,1-f][1,2,4]triazin-5-yl}methyl)amino]ethyl}cyclopentan-1-ol] gave an IC50 of 0.7 nM.

`CC1(NCc2ccn3nc(-c4ccccn4)nc(Nc4ccncc4F)c23)CCC1` [Example 241, 3-fluoro-N-(5-{[(1-methylcyclobutyl)amino]methyl}-2-(pyridin-2-yl)pyrrolo[2,1-f][1,2,4]triazin-4-yl)pyridin-4-amine] showed an IC50 of 0.27 nM.

As to `CC1(NCc2ccn3nc(-c4ccccn4)nc(Nc4ccncc4F)c23)CCOCC1` [Example 242, 3-fluoro-N-(5-{[(4-methyloxan-4-yl)amino]methyl}-2-(pyridin-2-yl)pyrrolo[2,1-f][1,2,4]triazin-4-yl)pyridin-4-amine], the IC50 is under 0.76 nM.
